Here are results for three compounds from PMC3118852 (Chemical research in toxicology, 2011).

For one series, the system named is recombinant human AChE. The note with it: pH 8; cited from earlier work.
Series [1] concerns the target T1, human BChE (Homo sapiens, UniProt P06276).
For another series, the target named is CBDP-phosphonylated AChE (Homo sapiens, UniProt P22303). Format: biochemical. The note with it: pH 8.
In the next series the target is human AChE (Homo sapiens, UniProt P22303). Format: biochemical.
Series [2] concerns the target T1, human BChE. The note with it: pH 8; cited from earlier work.
A further series deals with CBDP-phosphonylated BChE (Homo sapiens, UniProt P06276). The class given is biochemical. As to conditions: pH 8.
The test system of a further series is paraoxonase 1. The note with it: cited from earlier work.
The conditions of series [3]: pH 8.
The test system of the next series is rat brain AChE. As to conditions: pH 7.4; cited from earlier work.
The target in another series is BChE. The note with it: cited from earlier work.

A value given as a limit tells only on which side of the number the result lay.

T1 sequence (P06276 29-602): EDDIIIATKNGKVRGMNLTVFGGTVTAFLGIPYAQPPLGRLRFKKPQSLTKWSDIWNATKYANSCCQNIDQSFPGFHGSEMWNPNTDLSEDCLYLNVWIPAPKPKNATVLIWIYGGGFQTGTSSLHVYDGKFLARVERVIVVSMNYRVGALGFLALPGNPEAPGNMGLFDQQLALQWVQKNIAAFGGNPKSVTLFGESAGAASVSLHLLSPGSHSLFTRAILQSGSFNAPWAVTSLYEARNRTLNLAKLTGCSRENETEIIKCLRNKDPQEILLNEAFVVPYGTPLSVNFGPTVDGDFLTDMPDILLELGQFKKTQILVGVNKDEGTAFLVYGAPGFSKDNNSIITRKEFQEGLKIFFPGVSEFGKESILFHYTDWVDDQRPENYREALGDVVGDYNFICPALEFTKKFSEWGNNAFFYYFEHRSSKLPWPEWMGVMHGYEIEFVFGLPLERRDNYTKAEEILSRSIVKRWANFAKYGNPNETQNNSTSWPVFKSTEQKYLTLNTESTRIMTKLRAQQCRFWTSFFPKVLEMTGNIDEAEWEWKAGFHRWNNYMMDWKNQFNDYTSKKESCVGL
human AChE, sequence (P22303 32-614): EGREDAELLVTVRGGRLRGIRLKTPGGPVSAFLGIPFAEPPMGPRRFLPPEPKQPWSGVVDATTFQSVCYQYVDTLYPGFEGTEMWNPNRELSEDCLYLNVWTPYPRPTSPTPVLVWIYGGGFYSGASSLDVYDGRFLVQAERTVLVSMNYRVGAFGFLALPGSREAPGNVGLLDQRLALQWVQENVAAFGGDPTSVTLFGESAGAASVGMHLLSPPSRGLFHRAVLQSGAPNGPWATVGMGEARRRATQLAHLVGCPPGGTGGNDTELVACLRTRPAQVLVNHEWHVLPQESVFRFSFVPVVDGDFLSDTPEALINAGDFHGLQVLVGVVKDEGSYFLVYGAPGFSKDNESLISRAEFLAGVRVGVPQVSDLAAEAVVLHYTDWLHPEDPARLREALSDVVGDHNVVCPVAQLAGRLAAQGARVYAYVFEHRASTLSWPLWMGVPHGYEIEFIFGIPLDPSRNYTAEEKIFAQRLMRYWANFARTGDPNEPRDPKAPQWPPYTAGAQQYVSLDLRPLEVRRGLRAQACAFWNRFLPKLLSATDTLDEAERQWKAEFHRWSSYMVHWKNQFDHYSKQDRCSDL
CBDP-phosphonylated BChE, sequence (P06276 29-602): as the sequence (P06276 29-602) above
CBDP-phosphonylated AChE, sequence (P22303 32-614): as the sequence (P22303 32-614) above

On to `Cc1ccccc1OP1(=O)OCc2ccccc2O1` (centres unmarked) [CBDP, 2-(o-cresyl)-4H-1,3,2-benzodioxaphosphoran-2-one], for which the figures for the “bimolecular rate constant of inhibition” value in the series with recombinant human AChE, on human BChE [2] and in the series with rat brain AChE were 35 M⁻¹ s⁻¹, 330 M⁻¹ s⁻¹ and 18.3 M⁻¹ s⁻¹, respectively. For the same compound, the “K'I, dissociation constant of the Michaelis complex, BChE form E′” value on human BChE [1] is given as greater than 10 nM. In addition, on human BChE [1], the “ki values for BChE (both forms)” value was 10^7–10^8 M^−1 min^−1. Moreover, the “slow phase reactivity of hBChE (form E′) relative to hAChE (form E′)” value at human BChE [1] stood at 235±110 fold. The “kp, phosphorylation rate constant, BChE form E (kp=ki.KI)” value at human BChE [1] (human) is greater than 1.5 min⁻¹. The inhibitory constant (Ki) (in general, the dissociation constant of the complex between target and ligand, obtained from inhibition or displacement) is greater than 10 nM on human BChE [1] (read-out: KI, dissociation constant of the Michaelis complex, BChE form E) and less than 100 nM at human AChE (read-out: KI, dissociation constant of the Michaelis complex, AChE form E). The “time to loss of reactivatibility (aging) following inhibition” value on CBDP-phosphonylated AChE and at CBDP-phosphonylated BChE was “less than 15 s” in each case. Moreover, the “K'I, dissociation constant of the Michaelis complex, AChE form E′” value on human AChE was greater than 5.5 µM. Further, the “kobs, fast phase of inhibition (independent of CBDP concentration)” value at human AChE was 0.37 ± 0.15 min⁻¹. Moreover, the “reaction with paraoxonase 1” value with paraoxonase 1 is “does not react”. The compound further returned a hydrolysis rate in series [3] of 0.0126 min⁻¹.
With `CCOP(=O)(OCC)Oc1cc(C)nc(C(C)C)n1` [diazoxon], the “ki, reactivity with BChE” value on BChE was 1.28e+06 M⁻¹ s⁻¹.
As to chlorpyrifos-oxon, at BChE, the “ki, reactivity with BChE” value is 2.83e+07 M⁻¹ s⁻¹.
